Among the data in patent US20250313563A1, “GLYCOGEN SYNTHASE KINASE 3 INHIBITORS AND USES THEREOF” (The Broad Institute, Inc., priority 2022, published 2025) are IC50 values, retold here.

Assay [1] concerns the target GSK3b (GST-full length GSK3b) (Homo sapiens (Human), UniProt P49841). As to the kind of experiment: GSK3b TR-FRET kinase assay. In kind it is biochemical. A digest of the protocol: (§1)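 Full-length GST-tagged human enzyme (1 nM) is exposed to test compound for 30 min before substrates are added. Phosphorylation of a primed biotinylated glycogen synthase peptide proceeds 100 min at room temperature at low ATP (4 μM α; 2 μM β) or high ATP (1 mM). Product is quantified by TR-FRET.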
(Time-resolved FRET reads energy transfer from a long-lived donor to a nearby acceptor.)

Assay [2] has as its target GSK3α (GST-full length GSK3α) (Homo sapiens (Human), UniProt P49840). As to the kind of experiment: GSK3α TR-FRET kinase assay. The format is biochemical. A digest of the protocol: as §1
The mark [3] stands for this setting: 1 nM GSK3b, 2 μM ATP, 30 minute preincubation, Table 16, read-out: GSK3-B TR-FRET BIOCHEMICAL (TR-FRET).
[4] abbreviates: 1 nM GSK3α, 4 μM ATP, 30 minute preincubation, Table 16, read-out: GSK3-A TR-FRET BIOCHEMICAL (TR-FRET).
Setting [5] is: 1 nM GSK3b, 2 μM ATP, 30 minute preincubation, geometric mean, read-out: GSK3-B TR-FRET BIOCHEMICAL (TR-FRET), GMean, IC50.
Where [6] appears, read: 1 nM GSK3α, 4 μM ATP, 30 minute preincubation, geometric mean, read-out: GSK3-A TR-FRET BIOCHEMICAL (TR-FRET), GMean, IC50.
The mark [7] stands for this setting: 1 nM GSK3b, 2 μM ATP, 30 minute preincubation, read-out: GSK3-B TR-FRET BIOCHEMICAL (TR-FRET), IC50.
Where [8] appears, read: 1 nM GSK3α, 4 μM ATP, 30 minute preincubation, read-out: GSK3-A TR-FRET BIOCHEMICAL (TR-FRET), IC50.
Where [9] appears, read: 1 nM GSK3b, 2 μM ATP, 30 minute preincubation, Table 16, read-out: GSK3-B TR-FRET BIOCHEMICAL (TR-FRET), IC50.
[10] abbreviates: 1 nM GSK3α, 4 μM ATP, 30 minute preincubation, Table 16, read-out: GSK3-A TR-FRET BIOCHEMICAL (TR-FRET), IC50.

Like-named read-outs stand apart in the source and are kept apart here.

Chain of GSK3b (GST-full length GSK3b) (P49841 whole entry): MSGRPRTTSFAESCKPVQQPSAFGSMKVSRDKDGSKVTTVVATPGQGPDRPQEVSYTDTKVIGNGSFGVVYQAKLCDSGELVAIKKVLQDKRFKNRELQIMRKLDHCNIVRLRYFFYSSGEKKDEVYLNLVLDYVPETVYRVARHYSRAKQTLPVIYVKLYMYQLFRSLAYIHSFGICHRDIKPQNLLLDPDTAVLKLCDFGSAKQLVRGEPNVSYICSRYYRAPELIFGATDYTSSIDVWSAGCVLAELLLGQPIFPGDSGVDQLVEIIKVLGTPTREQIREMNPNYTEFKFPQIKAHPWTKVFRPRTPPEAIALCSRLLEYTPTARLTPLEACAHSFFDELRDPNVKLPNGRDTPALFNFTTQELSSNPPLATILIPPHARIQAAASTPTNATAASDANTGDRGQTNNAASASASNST
Chain of GSK3α (GST-full length GSK3α) (P49840 whole entry): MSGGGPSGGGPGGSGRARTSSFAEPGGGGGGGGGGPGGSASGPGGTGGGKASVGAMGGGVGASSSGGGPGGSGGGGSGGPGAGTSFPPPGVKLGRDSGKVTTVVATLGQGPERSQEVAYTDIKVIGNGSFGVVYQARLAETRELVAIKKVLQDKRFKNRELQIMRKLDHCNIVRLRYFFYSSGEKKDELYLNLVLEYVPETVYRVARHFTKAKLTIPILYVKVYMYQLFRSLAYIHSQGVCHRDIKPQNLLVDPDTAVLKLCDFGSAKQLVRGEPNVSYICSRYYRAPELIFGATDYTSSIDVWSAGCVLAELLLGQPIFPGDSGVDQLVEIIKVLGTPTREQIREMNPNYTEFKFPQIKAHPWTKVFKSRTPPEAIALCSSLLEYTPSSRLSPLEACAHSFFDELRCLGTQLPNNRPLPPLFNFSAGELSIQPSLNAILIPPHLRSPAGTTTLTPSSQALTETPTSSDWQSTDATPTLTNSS

Turning to `CC1(C)CC(=O)C2=C(C1)Nc1n[nH]cc1C21CN(c2ccc(C(F)(F)F)cc2)C1` [Compound 945478], the IC50 in assay [1] (setting [3]) and in assay [2] (setting [4]) was 100 to 1000 nM throughout.

`CC[C@]1(c2cccc(-c3ccnn3C)c2)C2=C(CC3(CCCC3)NC2=O)Nc2n[nH]cc21` [Compound 948018]: the IC50 in assay [1] (setting [5]) and in assay [2] (setting [6]) was at most 100 nM each time.

Turning to `CC1CC(C(=O)N2CC3(C2)CC2(CO3)C3=C(CC(C)(C)CC3=O)Nc3n[nH]cc32)C1` (centres unmarked) [Compound 947266], the IC50 in assay [1] (setting [7]) and in assay [2] (setting [8]) was at most 100 nM in each case.

For `CCC1(c2cccc(-c3ccnc4c3CCCC4)c2)C2=C(CN(Cc3ccccc3)C2=O)Nc2n[nH]cc21` (centres unmarked) [Compound 948551], the figures for the IC50 in assay [1] (setting [7]) and in assay [2] (setting [8]) were 100 to 1000 nM and at most 100 nM, respectively.

On to `O=C1CC2(CCC2)CC2=C1C1(CCOCC1)c1c[nH]nc1N2` [Compound 909208], for which the IC50 in assay [1] (setting [3]) was 100 to 1000 nM; in assay [2] (setting [4]), at most 100 nM.

On to `CCn1nccc1S(=O)(=O)N1CCC2(CC1)C1=C(CC(C)(C)CC1=O)Nc1n[nH]cc12` [Compound 945664], for which the IC50 in assay [1] (setting [3]) and in assay [2] (setting [4]) was at most 100 nM throughout.

In the case of `CC[C@]1(c2cccc(-c3cnn4cccnc34)c2)C2=C(CC(C)(C)NC2=O)Nc2n[nH]cc21` [Compound 950830], the IC50 was 100 to 1000 nM in assay [1] (setting [9]) and at most 100 nM in assay [2] (setting [10]).

On to `CC[C@]1(c2cccc(C(F)(F)F)c2)C2=C(CCN(c3ccc(C)cc3)C2=O)Nc2n[nH]cc21` [Compound 949119], for which the IC50 in assay [1] (setting [5]) was over 5000 nM; in assay [2] (setting [6]), 1000 to 5000 nM.

With `Cn1ccc(S(=O)(=O)N2CCC3(CC2)C2=C(CC(C)(C)CC2=O)Nc2n[nH]cc23)n1` [Compound 901471], the IC50 was at most 100 nM in assay [1] (setting [3]); 1000 to 5000 nM in assay [1] (GSK3-B (TR-FRET 1 mM ATP), GMean, IC50, 1 mM ATP, geometric mean); at most 100 nM in assay [2] (setting [4]); 100 to 1000 nM in assay [2] (GSK3-A (TR-FRET 1 mM ATP), GMean, IC50, 1 mM ATP, geometric mean).

Consider `CCC1(c2cccc(-c3cccnc3)c2)C2=C(CC(C)(C)CC2=O)Nc2n[nH]cc21` (centres unmarked) [Compound 791272], for which the results for the IC50 in assay [1] (setting [5]) and in assay [2] (setting [6]) were 100 to 1000 nM and at most 100 nM, respectively.

For the compound `CC1(C)CC(=O)C2=C(C1)Nc1n[nH]cc1C21CN(Cc2cnc3ccccn23)C1` [Compound 932654], the IC50 in assay [1] (setting [9]) and in assay [2] (setting [10]) was over 5000 nM throughout.

`CC[C@]1(c2cccc(-c3ccnn3C)c2)C2=C(CC3(CCS(=O)(=O)CC3)NC2=O)Nc2n[nH]cc21` [Compound 949394]: the values for the IC50 in assay [1] (setting [9]) and in assay [2] (setting [10]) were 100 to 1000 nM and at most 100 nM, respectively.

In the case of `CC[C@]1(c2cccc(C(F)(F)F)c2)C2=C(CCN(CCOC)C2=O)Nc2n[nH]cc21` [Compound 949600], the IC50 in assay [1] (setting [9]) and in assay [2] (setting [10]) was over 5000 nM throughout.

Regarding `CC[C@@]1(c2ccccc2)C2=C(C[C@@]3(CCN(C)C3=O)CC2=O)Nc2n[nH]cc21` [Compound 949760], the results for the IC50 in assay [1] (setting [3]) and in assay [2] (setting [4]) were over 5000 nM and 100 to 1000 nM, respectively.

In the case of `CCC1(c2cccc(-c3ccnc(C)c3F)c2)C2=C(CC(C)(C)CC2=O)Nc2n[nH]cc21` (centres unmarked) [Compound 918281], the results for the IC50 in assay [1] (setting [9]) and in assay [2] (setting [10]) were 100 to 1000 nM and at most 100 nM, respectively.

In the case of `C[C@@H]1CC(=O)C2=C(C1)Nc1n[nH]cc1[C@@]2(C)c1ccccc1` [Compound 789333], the IC50 in assay [1] (setting [5]) and in assay [2] (setting [6]) was over 5000 nM throughout.

`CCC1(c2cccc(C(C)C)c2)C2=C(CC(C)(C)NC2=O)Nc2n[nH]c(C)c21` (centres unmarked) [Compound 949173]: the IC50 in assay [1] (setting [5]) and in assay [2] (setting [6]) was at most 100 nM throughout.

For `CCC1(c2cccc(S(C)(=O)=O)c2)C2=C(CC(C)(C)NC2=O)Nc2n[nH]c(C)c21` (centres unmarked) [Compound 947395], the IC50 is at most 100 nM in assay [1] (setting [7]); 100 to 1000 nM in assay [1] (read-out: GSK3-B (TR-FRET 1 mM ATP), GMean, IC50, 1 mM ATP, geometric mean); at most 100 nM in assay [2] (setting [8]); 100 to 1000 nM in assay [2] (read-out: GSK3-A (TR-FRET 1 mM ATP), GMean, IC50, 1 mM ATP, geometric mean).

Turning to `CCC1(c2cccc(N3CC(C)C(C)C3)c2)C2=C(CC(C)(C)CC2=O)Nc2n[nH]cc21` (centres unmarked) [Compound 918327], the IC50 in assay [1] (setting [9]) was over 5000 nM; in assay [2] (setting [10]), 1000 to 5000 nM.

For the compound `CCC1(c2cccc(C(F)(F)F)c2)C2=C(CCN(c3cn(C)nc3C)C2=O)Nc2n[nH]cc21` (centres unmarked) [Compound 949641], the IC50 in assay [1] (setting [9]) and in assay [2] (setting [10]) was over 5000 nM throughout.
